{
  "source": "patent US20250207131A1",
  "about": "“MODIFIED RNA AGENTS WITH REDUCED OFF-TARGET EFFECT” (Alnylam Pharmaceuticals, Inc., priority 2018, published 2025)",
  "key": {"[1]": {"system": "TTR", "assay": "In vitro on-target activity, primary mouse hepatocytes, free uptake (TTR siRNAs)", "format": "cell-based", "details": "1 nM, log2 transformed, relative to the parent"}, "[2]": {"system": "luciferase reporter plasmids (psiCHECK2, Renilla luciferase fused to target sequence)", "assay": "Off-target Dual-Glo luciferase reporter assay in COS-7 cells", "format": "cell-based", "procedure": "Dual-Glo® Luciferase assay: Cos7 cells (ATCC, Manassas, VA) were grown to near confluence at 37° C. in an atmosphere of 5% CO2 in DMEM (ATCC) supplemented with 10% FBS, before being released from the plate by trypsinization. siRNA and psiCHCECK2 plasmid transfection was carried out by adding 5 μL of siRNA duplexes and 5 μL of psiCHECK2 plasmid per well along with 5 μL of Opti-MEM plus 0.1 μL of Lipofectamine 2000 per well (Invitrogen, Carlsbad CA. cat #13778-150) and then incubated at room temperature for 15 minutes. The mixture was then added to the cells which were re-suspended in 35 ul of fresh complete media. The transfected cells were incubated at 37° C. in an atmosphere of 5% CO2.\n48 hours after the siRNAs and psiCHECK2 plasmid were transfected; Firefly (transfection control) and Renilla (fused to target sequence) luciferase were measured. First, media was removed from cells. Then Firefly luciferase activity was measured by adding 20 μL of Dual-Glo® Luciferase Reagent equal to the culture medium volume to each well and mix. The mixture was incubated at room temperature for 30 minutes before luminescence (500 nm) was measured on a Spectramax (Molecular Devices) to detect the Firefly luciferase signal. Renilla luciferase activity was measured by adding 20 μL of room temperature of Dual-Glo® Stop & Glo® Reagent was added to each well and the plates were incubated for 10-15 minutes before luminescence was again measured to determine the Renilla luciferase signal. The Dual-Glo® Stop & Glo® Reagent, quenches the firefly luciferase signal and sustained luminescence for the Renilla luciferase reaction. siRNA activity was determined by normalizing the Renilla signal to the Firefly (control) signal within each well. The magnitude of siRNA activity was then assessed relative to cells that were transfected with the same vector but were not treated with siRNA or were treated with a non-targeting siRNA. All transfections were done at n=2 or greater."}, "[3]": {"assay": "Temperature-dependent UV spectroscopy, Tm of modified siRNA duplexes", "format": "physicochemical", "details": "1 μM duplex, 0.25x PBS", "procedure": "Temperature-dependent UV Spectroscopy: The melting studies were performed at a duplex concentration of 1 μM (consisting of the modified antisense […]) in 1 cm path length quartz cells on a Cary 300 spectrophotometer equipped with a thermoprogrammer. Each cuvette contained 800 μL of sample solution covered by 200 μL of light mineral oil. Melting curves were monitored at 260 nm with a heating rate of 1° C./min from 15-90° C. Melting temperatures (Tm) were calculated from the first derivatives of the smoothed heating curves and the reported values are the result of at least two independent measurements."}, "[4]": {"system": "TTR", "assay": "Mouse pharmacodynamic study, circulating TTR protein", "format": "in vivo", "parameters": "key: fraction of vehicle-control group mean serum TTR protein", "details": "mice, single dose 1 mg/kg, circulation, Day 7", "procedure": "In mouse pharmacodynamic studies, female C57BL/6 mice (Charles River Laboratories) were administered a single dose of a vehicle control (1×PBS or 0.9% sodium chloride) or siRNA subcutaneously in the upper back. Bleeds were collected by retro-orbital bleeding. Serum were separated by centrifuging at 13000 rpm at room temperature for 10 mins. Mouse livers were collected and immediately snap frozen in liquid nitrogen, and stored at −80° C. for mRNA and siRNA analysis.\nMouse TTR Serum Protein Methods:_TTR serum protein was quantified using a commercially available enzyme-linked immunosorbent assay, 41-ALBMS-E01 (ALPCO, Salem, NH), according to manufacturer's instructions. Briefly, serum samples were diluted 4000 fold in 1× ALPCO Kit Dilution Buffer. An 8-point mouse TTR standard curve was generated using 2.5× serial dilutions, ranging from 0 to 1000 ng/mL. Standards and samples (100 uL) were added to the plate and allowed to incubate for 30 minutes at room temperature. […] After a wash in ALPCO Kit 1× Wash Buffer, plates were incubated for 10 minutes at room temperature in the dark with 3,3′,5,5′-tetramethybenzidine (TMB) and hydrogen peroxide in citric acid buffer at pH 3.3. Reactions were quenched with 100 μL of […] sulfuric acid per well. Absorbance at […] was read on a SpectraMax plate reader, and data were fit to a 4-parameter curve (y=(A−D)/(1+(x/C)^B)+D) as calculated in Softmax Pro Software to determine serum TTR protein levels expressed in ug/mL. Protein levels at each time point were normalized to the respective group average of vehicle control serum protein values."}, "[5]": {"details": "antisense Position 5, Seq 3 (TTR)"}, "[6]": {"details": "antisense Position 7, Seq 3 (TTR)"}, "[7]": {"details": "antisense Position 7, Seq 4 (TTR)"}, "[8]": {"details": "TTR-3, antisense strand modified at position 5, luciferase reporter, COS-7 cells"}, "[9]": {"details": "TTR-3, antisense strand modified at position 7, luciferase reporter, COS-7 cells"}, "[10]": {"details": "TTR-4, modification at antisense position 7, luciferase reporter plasmids co-transfected with siRNAs into COS-7 cells"}},
  "note": "pIC50: −log10 of the molar value.",
  "data": [
    {"substance": "5′-(R)-Me-UNA [Mod 5 (R)]", "values": [
      {"measurement": "On-target FU", "setting": "[1]; [5]", "value": "−0.16"},
      {"measurement": "On-target FU", "setting": "[1]; [6]", "value": "−0.03"},
      {"measurement": "On-target FU", "setting": "[1]; [7]", "value": "−0.33"},
      {"measurement": "pIC50", "setting": "[2]; [8]", "value": "< 7.30"},
      {"measurement": "pIC50", "setting": "[2]; [9]", "value": "< 7.30"},
      {"measurement": "pIC50", "setting": "[2]; [10]", "value": 8.09},
      {"measurement": "Thermal melting temperature (Tm)", "setting": "[3]; [5]", "value": 84.2, "unit": "°C"},
      {"measurement": "Thermal melting temperature (Tm)", "setting": "[3]; [6]", "value": 80.3, "unit": "°C"},
      {"measurement": "Thermal melting temperature (Tm)", "setting": "[3]; [7]", "value": 82.0, "unit": "°C"},
      {"measurement": "On-target, level of protein remaining with respect to PBS control", "setting": "[4]; [6]", "value": 0.17},
      {"measurement": "On-target, level of protein remaining with respect to PBS control", "setting": "[4]; [7]", "value": 0.16}
    ]},
    {"substance": "2′-(S)-Me-UNA [Mod 7 (S)]", "values": [
      {"measurement": "On-target FU", "setting": "[1]; [5]", "value": "−0.10"},
      {"measurement": "On-target FU", "setting": "[1]; [6]", "value": "−0.02"},
      {"measurement": "On-target FU", "setting": "[1]; [7]", "value": "−0.14"},
      {"measurement": "pIC50", "setting": "[2]; [8]", "value": "< 7.30"},
      {"measurement": "pIC50", "setting": "[2]; [9]", "value": "< 7.30"},
      {"measurement": "pIC50", "setting": "[2]; [10]", "value": 8.87},
      {"measurement": "Thermal melting temperature (Tm)", "setting": "[3]; [5]", "value": 84.3, "unit": "°C"},
      {"measurement": "Thermal melting temperature (Tm)", "setting": "[3]; [6]", "value": 80.0, "unit": "°C"},
      {"measurement": "Thermal melting temperature (Tm)", "setting": "[3]; [7]", "value": 83.0, "unit": "°C"},
      {"measurement": "On-target, level of protein remaining with respect to PBS control", "setting": "[4]; [6]", "value": 0.15},
      {"measurement": "On-target, level of protein remaining with respect to PBS control", "setting": "[4]; [7]", "value": 0.20}
    ]},
    {"substance": "3′-(R)-Me-UNA [Mod 6 (R)]", "values": [
      {"measurement": "On-target FU", "setting": "[1]; [5]", "value": "−0.78"},
      {"measurement": "On-target FU", "setting": "[1]; [6]", "value": "−0.32"},
      {"measurement": "On-target FU", "setting": "[1]; [7]", "value": 0.36},
      {"measurement": "pIC50", "setting": "[2]; [8]", "value": "< 7.30"},
      {"measurement": "pIC50", "setting": "[2]; [9]", "value": "< 7.30"},
      {"measurement": "pIC50", "setting": "[2]; [10]", "value": 8.54},
      {"measurement": "Thermal melting temperature (Tm)", "setting": "[3]; [5]", "value": 84.1, "unit": "°C"},
      {"measurement": "Thermal melting temperature (Tm)", "setting": "[3]; [6]", "value": 81.2, "unit": "°C"},
      {"measurement": "Thermal melting temperature (Tm)", "setting": "[3]; [7]", "value": 82.0, "unit": "°C"},
      {"measurement": "On-target, level of protein remaining with respect to PBS control", "setting": "[4]; [6]", "value": 0.20},
      {"measurement": "On-target, level of protein remaining with respect to PBS control", "setting": "[4]; [7]", "value": 0.29}
    ]},
    {"substance": "2′-(R)-Me-UNA [Mod 7 (R)]", "values": [
      {"measurement": "On-target FU", "setting": "[1]; [5]", "value": 0.02},
      {"measurement": "On-target FU", "setting": "[1]; [6]", "value": "−0.35"},
      {"measurement": "On-target FU", "setting": "[1]; [7]", "value": "−0.24"},
      {"measurement": "pIC50", "setting": "[2]; [8]", "value": "< 7.30"},
      {"measurement": "pIC50", "setting": "[2]; [9]", "value": "< 7.30"},
      {"measurement": "pIC50", "setting": "[2]; [10]", "value": 8.79},
      {"measurement": "Thermal melting temperature (Tm)", "setting": "[3]; [5]", "value": 84.0, "unit": "°C"},
      {"measurement": "Thermal melting temperature (Tm)", "setting": "[3]; [6]", "value": 80.0, "unit": "°C"},
      {"measurement": "Thermal melting temperature (Tm)", "setting": "[3]; [7]", "value": 82.1, "unit": "°C"},
      {"measurement": "On-target, level of protein remaining with respect to PBS control", "setting": "[4]; [6]", "value": 0.18},
      {"measurement": "On-target, level of protein remaining with respect to PBS control", "setting": "[4]; [7]", "value": 0.14}
    ]},
    {"substance": "3′-(S)-Me-UNA [Mod 6 (S)]", "values": [
      {"measurement": "On-target FU", "setting": "[1]; [5]", "value": "−0.38"},
      {"measurement": "On-target FU", "setting": "[1]; [6]", "value": "−0.53"},
      {"measurement": "On-target FU", "setting": "[1]; [7]", "value": "−0.09"},
      {"measurement": "pIC50", "setting": "[2]; [8]", "value": "< 7.30"},
      {"measurement": "pIC50", "setting": "[2]; [9]", "value": "< 7.30"},
      {"measurement": "pIC50", "setting": "[2]; [10]", "value": 8.44},
      {"measurement": "Thermal melting temperature (Tm)", "setting": "[3]; [5]", "value": 84.0, "unit": "°C"},
      {"measurement": "Thermal melting temperature (Tm)", "setting": "[3]; [6]", "value": 81.1, "unit": "°C"},
      {"measurement": "Thermal melting temperature (Tm)", "setting": "[3]; [7]", "value": 82.0, "unit": "°C"},
      {"measurement": "On-target, level of protein remaining with respect to PBS control", "setting": "[4]; [6]", "value": 0.20},
      {"measurement": "On-target, level of protein remaining with respect to PBS control", "setting": "[4]; [7]", "value": 0.23}
    ]},
    {"substance": "5′-(S)-Me-UNA [Mod 5 (S)]", "values": [
      {"measurement": "On-target FU", "setting": "[1]; [5]", "value": "−0.87"},
      {"measurement": "On-target FU", "setting": "[1]; [6]", "value": "−1.20"},
      {"measurement": "On-target FU", "setting": "[1]; [7]", "value": 0.22},
      {"measurement": "pIC50", "setting": "[2]; [8]", "value": "< 7.30"},
      {"measurement": "pIC50", "setting": "[2]; [9]", "value": "< 7.30"},
      {"measurement": "pIC50", "setting": "[2]; [10]", "value": 8.06},
      {"measurement": "Thermal melting temperature (Tm)", "setting": "[3]; [5]", "value": 84.2, "unit": "°C"},
      {"measurement": "Thermal melting temperature (Tm)", "setting": "[3]; [6]", "value": 80.3, "unit": "°C"},
      {"measurement": "Thermal melting temperature (Tm)", "setting": "[3]; [7]", "value": 82.0, "unit": "°C"},
      {"measurement": "On-target, level of protein remaining with respect to PBS control", "setting": "[4]; [6]", "value": 0.17},
      {"measurement": "On-target, level of protein remaining with respect to PBS control", "setting": "[4]; [7]", "value": 0.16}
    ]}
  ]
}
